# Results from patent US8952024B2, “Herbicidal pyrimidone derivatives” (E I du Pont de Nemours and Company, priority 2009, dated 2015).
# Assays:
# Format in all cases: in vivo
# [1] = tested on: velvetleaf (Abutilon theophrasti); experiment: Test A pre-/postemergence plant response
# How it was run: (§1)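 Injury was scored visually after roughly ten days against untreated controls, 0 = no effect, 100 = complete control. Test chemicals in a surfactant-containing non-phytotoxic solvent were sprayed either onto soil preemergence or onto one- to two-leaf, 2–10 cm plants postemergence.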
# [2] = tested on: giant foxtail (Setaria faberii); experiment: Test A pre-/postemergence plant response
# How it was run: as §1
# [3] = tested on: barnyardgrass (Echinochloa crus-galli); experiment: Test A pre-/postemergence plant response
# How it was run: as §1
# [4] = tested on: pigweed (Amaranthus retroflexus); experiment: Test A pre-/postemergence plant response
# How it was run: as §1
# [5] = tested on: wheat (Triticum aestivum); experiment: Test A pre-/postemergence plant response
# How it was run: as §1
# corn (Zea mays) = experiment: Test A pre-/postemergence plant response
# How it was run: as §1
# [6] = tested on: morningglory (Ipomoea spp.); experiment: Test A pre-/postemergence plant response
# How it was run: as §1
# [7] = tested on: large crabgrass (Digitaria sanguinalis); experiment: Test A pre-/postemergence plant response
# How it was run: as §1
# rice (Oryza sativa) = experiment: Test B flooded paddy test; settings: for Plant response rating, Flood, Rice: 250 g ai/ha, flooded paddy test, visual rating on 0 to 100 scale (0 no effect, 100 complete control) after 13 to 15 days; for Plant response rating, Rice: Flood (flooded paddy test), 13 to 15 days; for Rice plant response rating: Flood, 31 g ai/ha, scale 0 to 100 (0 no effect, 100 complete control)
# How it was run: (§2)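 Ratings are visual, 0–100 (100 = complete control), taken versus untreated controls 13 to 15 days after treatment in the greenhouse. Compound went straight into paddy water held 3 cm above soil, applied to 2-leaf-stage plants of four species.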
# [8] = tested on: barnyardgrass (Echinochloa crus-galli); experiment: Test B flooded paddy test; settings: for Plant response rating, Flood, Barnyardgrass: 250 g ai/ha, flooded paddy test, visual rating on 0 to 100 scale (0 no effect, 100 complete control) after 13 to 15 days; for Plant response rating, Barnyardgrass: Flood (flooded paddy test), 13 to 15 days; for Barnyardgrass plant response rating: Flood, 31 g ai/ha, scale 0 to 100 (0 no effect, 100 complete control)
# How it was run: as §2
# [9] = tested on: umbrella sedge (Cyperus difformis); experiment: Test B flooded paddy test; settings: for Plant response rating, Flood, Sedge, Umbrella: 250 g ai/ha, flooded paddy test, visual rating on 0 to 100 scale (0 no effect, 100 complete control) after 13 to 15 days; for Plant response rating, Sedge, Umbrella: Flood (flooded paddy test), 13 to 15 days; for Sedge, Umbrella plant response rating: Flood, 31 g ai/ha, scale 0 to 100 (0 no effect, 100 complete control)
# How it was run: as §2
# [10] = tested on: ducksalad (Heteranthera limosa); experiment: Test B flooded paddy test; settings: for Plant response rating, Flood, Ducksalad: 250 g ai/ha, flooded paddy test, visual rating on 0 to 100 scale (0 no effect, 100 complete control) after 13 to 15 days; for Plant response rating, Ducksalad: Flood (flooded paddy test), 13 to 15 days; for Ducksalad plant response rating: Flood, 31 g ai/ha, scale 0 to 100 (0 no effect, 100 complete control)
# How it was run: as §2
# [11] = Postemergence, 125 g ai/ha, 0 to 100 scale where 0 is no effect and 100 is complete control
# [12] = Postemergence, 500 g ai/ha, 0 to 100 scale, 0 = no effect, 100 = complete control, approx. ten days
# [13] = Preemergence, 125 g ai/ha, 0 to 100 scale, 0 = no effect, 100 = complete control
# [14] = Preemergence, 500 g ai/ha, visual injury, 0 to 100 scale (0 no effect, 100 complete control), approx. ten days
# [15] = 62 g ai/ha, scale of 0 to 100 where 0 is no effect and 100 is complete control
# [16] = Postemergence, 125 g ai/ha, visual injury, 0 to 100 scale (0 no effect, 100 complete control), approx. ten days
# [17] = Postemergence, 500 g ai/ha, visual injury, 0 to 100 scale (0 no effect, 100 complete control), approx. ten days
# [18] = Preemergence, 125 g ai/ha, 0 to 100 scale where 0 is no effect and 100 is complete control, approximately ten days
# [19] = Preemergence, 500 g ai/ha, 0 to 100 scale, 0 = no effect, 100 = complete control
# [20] = 125 g ai/ha, scale 0 to 100, 0 is no effect, 100 is complete control
smiles,measurement,setting,value
CCCCCc1ncc(C(=O)C2=C(O)CCCC2=O)c(=O)n1-c1ccccc1 [Compound 78],"Plant response rating, Velvetleaf",[1]; [11],100
same,"Plant response rating, Velvetleaf",[1]; [12],100
same,"Plant response rating, Velvetleaf",[1]; [13],20
same,"Plant response rating, Velvetleaf",[1]; [14],50
same,"Plant response rating, Foxtail, Giant",[2]; [11],20
same,"Plant response rating, Foxtail, Giant",[2]; [12],50
same,"Plant response rating, Foxtail, Giant",[2]; [13],0
same,"Plant response rating, Foxtail, Giant",[2]; [14],10
same,"Plant response rating, Barnyardgrass",[3]; [11],50
same,"Plant response rating, Barnyardgrass",[3]; [12],70
same,"Plant response rating, Barnyardgrass",[3]; [13],0
same,"Plant response rating, Barnyardgrass",[3]; [14],30
same,"Plant response rating, Pigweed",[4]; [11],100
same,"Plant response rating, Pigweed",[4]; [12],100
same,"Plant response rating, Pigweed",[4]; [13],50
same,"Plant response rating, Pigweed",[4]; [14],100
same,"Plant response rating, Wheat",[5]; [11],0
same,"Plant response rating, Wheat",[5]; [12],0
same,"Plant response rating, Wheat",[5]; [13],0
same,"Plant response rating, Wheat",[5]; [14],0
same,"Plant response rating, Corn",corn (Zea mays); [11],0
same,"Plant response rating, Corn",corn (Zea mays); [12],20
same,"Plant response rating, Corn",corn (Zea mays); [13],0
same,"Plant response rating, Corn",corn (Zea mays); [14],0
same,"Plant response rating, Morningglory",[6]; [11],70
same,"Plant response rating, Morningglory",[6]; [12],100
same,"Plant response rating, Morningglory",[6]; [13],0
same,"Plant response rating, Morningglory",[6]; [14],0
same,"Plant response rating, Crabgrass, Large",[7]; [11],30
same,"Plant response rating, Crabgrass, Large",[7]; [12],70
same,"Plant response rating, Crabgrass, Large",[7]; [13],10
same,"Plant response rating, Crabgrass, Large",[7]; [14],50
same,"Plant response rating, Flood, Rice",rice (Oryza sativa),20
same,"Plant response rating, Rice",rice (Oryza sativa); [15],0
same,"Plant response rating, Flood, Barnyardgrass",[8],0
same,"Plant response rating, Barnyardgrass",[8]; [15],0
same,"Plant response rating, Flood, Sedge, Umbrella",[9],40
same,"Plant response rating, Sedge, Umbrella",[9]; [15],30
same,"Plant response rating, Flood, Ducksalad",[10],20
same,"Plant response rating, Ducksalad",[10]; [15],0
O=C(C1=C(O)C2CCC(C2)C1=O)c1cnc(-c2ccccc2)n(C2CCCCCC2)c1=O (stereo not drawn) [Compound 253],"Plant response rating, Velvetleaf",[1]; [16],100
same,Velvetleaf plant response rating,[1]; [17],100
same,"Plant response rating, Velvetleaf",[1]; [18],50
same,"Plant response rating, Velvetleaf",[1]; [19],90
same,"Plant response rating, Foxtail, Giant",[2]; [16],60
same,"Foxtail, Giant plant response rating",[2]; [17],100
same,"Plant response rating, Foxtail, Giant",[2]; [18],20
same,"Plant response rating, Foxtail, Giant",[2]; [19],70
same,"Plant response rating, Barnyardgrass",[3]; [11],100
same,Barnyardgrass plant response rating,[3]; [17],100
same,"Plant response rating, Barnyardgrass",[3]; [18],10
same,"Plant response rating, Barnyardgrass",[3]; [19],20
same,"Plant response rating, Pigweed",[4]; [16],90
same,Pigweed plant response rating,[4]; [17],100
same,"Plant response rating, Pigweed",[4]; [18],20
same,"Plant response rating, Pigweed",[4]; [19],80
same,"Plant response rating, Wheat",[5]; [16],0
same,Wheat plant response rating,[5]; [17],20
same,"Plant response rating, Wheat",[5]; [18],0
same,"Plant response rating, Wheat",[5]; [19],20
same,"Plant response rating, Corn",corn (Zea mays); [11],10
same,Corn plant response rating,corn (Zea mays); [17],40
same,"Plant response rating, Corn",corn (Zea mays); [18],0
same,"Plant response rating, Morningglory",[6]; [16],100
same,Morningglory plant response rating,[6]; [17],100
same,"Plant response rating, Morningglory",[6]; [18],40
same,"Plant response rating, Morningglory",[6]; [19],70
same,"Plant response rating, Crabgrass, Large",[7]; [11],80
same,"Crabgrass, Large plant response rating",[7]; [17],100
same,"Plant response rating, Crabgrass, Large",[7]; [18],30
same,"Plant response rating, Crabgrass, Large",[7]; [19],80
same,"Plant response rating, Flood, Rice",rice (Oryza sativa),20
same,"Plant response rating, Rice",rice (Oryza sativa); [15],0
same,"Plant response rating, Rice",rice (Oryza sativa); [20],0
same,Rice plant response rating,rice (Oryza sativa),0
same,"Plant response rating, Flood, Barnyardgrass",[8],20
same,"Plant response rating, Barnyardgrass",[8]; [15],0
same,"Plant response rating, Barnyardgrass",[8]; [20],0
same,Barnyardgrass plant response rating,[8],0
same,"Plant response rating, Flood, Sedge, Umbrella",[9],85
same,"Plant response rating, Sedge, Umbrella",[9]; [15],65
same,"Plant response rating, Sedge, Umbrella",[9]; [20],75
same,"Sedge, Umbrella plant response rating",[9],60
same,"Plant response rating, Flood, Ducksalad",[10],90
same,"Plant response rating, Ducksalad",[10]; [15],75
same,"Plant response rating, Ducksalad",[10]; [20],85
same,Ducksalad plant response rating,[10],60
Cc1cc(-n2c(-c3cccc(Cl)c3)ncc(C(=O)C3=C(O)CCCC3=O)c2=O)ccc1F [Compound 133],"Plant response rating, Velvetleaf",[1]; [11],100
same,"Plant response rating, Velvetleaf",[1]; [12],100
same,"Plant response rating, Velvetleaf",[1]; [13],50
same,"Plant response rating, Velvetleaf",[1]; [14],100
same,"Plant response rating, Foxtail, Giant",[2]; [11],20
same,"Plant response rating, Foxtail, Giant",[2]; [12],90
same,"Plant response rating, Foxtail, Giant",[2]; [13],40
same,"Plant response rating, Foxtail, Giant",[2]; [14],80
same,"Plant response rating, Barnyardgrass",[3]; [11],20
same,"Plant response rating, Barnyardgrass",[3]; [12],90
same,"Plant response rating, Barnyardgrass",[3]; [13],10
same,"Plant response rating, Barnyardgrass",[3]; [14],100
same,"Plant response rating, Pigweed",[4]; [11],80
same,"Plant response rating, Pigweed",[4]; [12],100
same,"Plant response rating, Pigweed",[4]; [13],40
same,"Plant response rating, Pigweed",[4]; [14],100
same,"Plant response rating, Wheat",[5]; [11],20
same,"Plant response rating, Wheat",[5]; [12],40
same,"Plant response rating, Wheat",[5]; [13],0
same,"Plant response rating, Wheat",[5]; [14],20
same,"Plant response rating, Corn",corn (Zea mays); [11],10
same,"Plant response rating, Corn",corn (Zea mays); [12],40
same,"Plant response rating, Corn",corn (Zea mays); [13],0
same,"Plant response rating, Corn",corn (Zea mays); [14],20
same,"Plant response rating, Morningglory",[6]; [11],40
same,"Plant response rating, Morningglory",[6]; [12],70
same,"Plant response rating, Morningglory",[6]; [13],0
same,"Plant response rating, Morningglory",[6]; [14],0
same,"Plant response rating, Crabgrass, Large",[7]; [11],40
same,"Plant response rating, Crabgrass, Large",[7]; [12],100
same,"Plant response rating, Crabgrass, Large",[7]; [13],50
same,"Plant response rating, Crabgrass, Large",[7]; [14],100
same,"Plant response rating, Flood, Rice",rice (Oryza sativa),0
same,"Plant response rating, Rice",rice (Oryza sativa); [15],0
same,"Plant response rating, Rice",rice (Oryza sativa); [20],0
same,Rice plant response rating,rice (Oryza sativa),0
same,"Plant response rating, Flood, Barnyardgrass",[8],0
same,"Plant response rating, Barnyardgrass",[8]; [15],0
same,"Plant response rating, Barnyardgrass",[8]; [20],0
same,Barnyardgrass plant response rating,[8],0
same,"Plant response rating, Flood, Sedge, Umbrella",[9],100
same,"Plant response rating, Sedge, Umbrella",[9]; [15],60
same,"Plant response rating, Sedge, Umbrella",[9]; [20],95
same,"Sedge, Umbrella plant response rating",[9],0
same,"Plant response rating, Flood, Ducksalad",[10],100
same,"Plant response rating, Ducksalad",[10]; [15],60
same,"Plant response rating, Ducksalad",[10]; [20],100
same,Ducksalad plant response rating,[10],60
